Experimental data published in patent US20120122776A1, “DPP-IV INHIBITORS FOR TREATMENT OF DIABETES IN PEDIATRIC PATIENTS” (BOEHRINGER INGELHEIM INTERNATIONAL GMBH, priority 2009, published 2012).
Each block holds one compound with its values, some of them ahead of it.

How the values were obtained:
[1] = Safety (adverse events, hypoglycaemia) in the 12-week add-on to metformin study; format: in vivo, human; details: 12 weeks
Description: In total, 106 patients (43.1%) experienced adverse events (AEs) with similar incidences across all treatments. Most frequently reported episodes were nasopharyngitis (7.5%), diarrhoea (3.3%), and nausea (3.0%). […] Ten patients (3.7%) experienced serious AEs but none of these events were considered drug-related.
The addition of BI 1356 to MET in patients with T2DM inadequately controlled on MET alone achieved clinically relevant and statistically significant reductions in HbA1c.

[2] = 12-week randomized, double-blind add-on to metformin study in inadequately controlled adult type 2 diabetic patients: HbA1c and FPG; details: for placebo corrected mean reduction in HbA1c: 12 weeks
Experimental: Effects were compared to add-on of placebo (PBO) or of open label glimepiride (GLIM; 1 to 3 mg qd) in a 12-week randomized, double-blind study.
The primary endpoint was change from baseline in HbA1c, adjusted for prior antidiabetic medication.

[3] = 2 h postprandial blood glucose excursions, multiple oral dose study in adult patients with type 2 diabetes; format: in vivo, human; details: already on Day 1; in doses 2.5 mg
Description: […]. […] […].

[4] = Plasma concentration after single oral administration in the thorough QT study; format: in vivo, human; details: for maximum gMean concentration after single oral administration: healthy subjects
Experimental: Forty-four subjects were enrolled, 26 (59.1%) of whom were male. The mean age was 36.4 years (range 22 to 48 years). The maximum gMean concentration after single oral administration was 7.05 nM (28.5% gCV) for 5 mg BI 1356, and 267 nM (66.6% gCV) for 100 mg BI 1356.

[5] = clinical; details: human; for Cmax / Tmax / AUC(0-t): plasma; for CL renal: urine
[6] = Safety and tolerability in people with type 2 diabetes
[7] = Pharmacokinetics of BI 1356, multiple oral doses once daily for 12 days in adult patients with type 2 diabetes; details: for fe0-24: fraction excreted in urine; for AUCT,ss / T1/2,ss / feT,ss / tmax,ss* / Cmax: steady state (Day 12); for tmax,ss*: median; for Cmax: read-out: Cmax,ss
[8] = gMean, 1 mg once daily oral for 12 days
[9] = gMean, 2.5 mg once daily oral for 12 days
[10] = gMean, 5 mg once daily oral for 12 days
[11] = gMean, 10 mg once daily oral for 12 days

SMILES: CCC1=C(C)CN(C(=O)NCCc2ccc(S(=O)(=O)NC(=O)N[C@H]3CC[C@H](C)CC3)cc2)C1=O [GLIM, glimepiride, reference compound]
drug-related hypoglycaemia ([1]; add-on to metformin): 3 patients
mean PBO corrected reduction in HbA1c at Week 12 ([2]; open label, 1 to 3 mg qd add-on to metformin, n=64): −0.90%

excretion via the kidney (therapeutic oral dose levels): < 7 % of the administered oral dose
main excretion organ (therapeutic oral dose levels): mainly excreted via the liver
Cmax ([5]; po, 1 mg): 3.13 nM
Tmax ([5]; po, 1 mg): 1.5 h
AUC(0-t) ([5]; po, 2.5 mg): 0.0853 µM·h
Cmax ([5]; po, 2.5 mg): 5.25 nM
Tmax ([5]; po, 2.5 mg): 2 h
AUC(0-t) ([5]; po, 5 mg): 0.118 µM·h
Cmax ([5]; po, 5 mg): 8.32 nM
Tmax ([5]; po, 5 mg): 1.75 h
AUC(0-t) ([5]; po, 10 mg): 0.161 µM·h
Cmax ([5]; po, 10 mg): 9.69 nM
Tmax ([5]; po, 10 mg): 2 h
CL renal ([5]; oral, 5 mg): ~70 mL/min
CL renal ([5]; po): 14 to 70 mL/min
mean accumulation ratio RA,AUC ([7]; doses above 1 mg, once daily for 12 days): ≤ 1.4
AUC0-24 [7, 8]: 0.0402 µM·h
Accumulation t1/2, [7, 8]: 23.9 h
Accumulation t1/2, [7, 9]: 12.5 h
Accumulation t1/2, [7, 10]: 11.4 h
Accumulation t1/2, [7, 11]: 8.59 h
fe0-24 [7, 9]: 0.139%
fe0-24 [7, 10]: 0.453%
fe0-24 [7, 11]: 0.919%
AUCT,ss ([7]; gMean, 1 mg once daily oral): 0.0817 µM·h
T1/2,ss ([7]; gMean, 1 mg once daily oral): 121 h
feT,ss ([7]; gMean, 1 mg once daily oral): 3.34%
AUCT,ss ([7]; gMean, 2.5 mg once daily oral): 0.117 µM·h
T1/2,ss ([7]; gMean, 2.5 mg once daily oral): 113 h
feT,ss ([7]; gMean, 2.5 mg once daily oral): 3.06%
AUCT,ss ([7]; gMean, 5 mg once daily oral): 0.158 µM·h
T1/2,ss ([7]; gMean, 5 mg once daily oral): 131 h
feT,ss ([7]; gMean, 5 mg once daily oral): 6.27%
AUCT,ss ([7]; gMean, 10 mg once daily oral): 0.19 µM·h
T1/2,ss ([7]; gMean, 10 mg once daily oral): 130 h
feT,ss ([7]; gMean, 10 mg once daily oral): 3.22%
tmax,ss* ([7]; 1 mg once daily oral): 1.48 h
tmax,ss* ([7]; 2.5 mg once daily oral): 1.42 h
tmax,ss* ([7]; 5 mg once daily oral): 1.53 h
tmax,ss* ([7]; 10 mg once daily oral): 1.34 h
Cmax ([7]; gMean, 1 mg once daily oral): 4.53 nM
Cmax ([7]; gMean, 2.5 mg once daily oral): 6.58 nM
Cmax ([7]; gMean, 5 mg once daily oral): 11.1 nM
Cmax ([7]; gMean, 10 mg once daily oral): 13.6 nM
SMILES: CC#CCn1c(N2CCC[C@@H](N)C2)nc2c1c(=O)n(Cc1nc(C)c3ccccc3n1)c(=O)n2C [BI 1356]
decrease in 2 h postprandial blood glucose excursions [3]: > 80%
drug-related hypoglycaemia ([1]; add-on to metformin): did not occur
incidence of AEs versus PBO ([1]; add-on to metformin): comparable
tolerability of combination treatment with MET ([1]; BI 1356 1, 5, and 10 mg and MET): well tolerated
maximum gMean concentration after single oral administration ([4]; 5 mg single oral dose): 7.05 nM
maximum gMean concentration after single oral administration ([4]; 100 mg single oral dose): 267 nM
maximum plasma concentration of supratherapeutic dose (100 mg) relative to therapeutic dose of 5 mg ([4]; single dose): about 38 fold
excretion form and pathway (in vivo): primarily excreted unchanged via the bile
safety and tolerability [6]: placebo-like safety and tolerability
reduction in FPG from baseline to Week 12 ([2]; 1 mg qd add-on to metformin): -19 mg/dL
placebo corrected mean reduction in HbA1c ([2]; 1 mg qd add-on to metformin, n=65): −0.39%
reduction in FPG from baseline to Week 12 ([2]; 5 mg qd add-on to metformin): -35 mg/dL
placebo corrected mean reduction in HbA1c ([2]; 5 mg qd add-on to metformin, n=66): −0.75%
reduction in FPG from baseline to Week 12 ([2]; 10 mg qd add-on to metformin): -30 mg/dL
placebo corrected mean reduction in HbA1c ([2]; 10 mg qd add-on to metformin, n=66): −0.73%
